molecular target: T1, human NaV1.8 (Homo sapiens, UniProt Q9Y5Y9); experiment: Nav1.8 Qube® Assay (automated 384-well patch-clamp, inhibition of sodium current); type: cell-based; details: human NaV1.8 channels stably expressed in HEK 293 cells, room temperature
T1 construct: expressed in transfected cells
Procedure, shortened: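 Whole-cell voltage clamp at room temperature in HEK293 cells stably expressing NaV1.8; from −90 mV hold, 10 s 1 Hz train of 20 ms pulses to 10 mV with 980 ms repolarization to −67 mV. Peak currents of 1st and 10th pulses give resting and inactivated-state IC50s, Hill fit.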

T1 sequence (Q9Y5Y9 whole entry): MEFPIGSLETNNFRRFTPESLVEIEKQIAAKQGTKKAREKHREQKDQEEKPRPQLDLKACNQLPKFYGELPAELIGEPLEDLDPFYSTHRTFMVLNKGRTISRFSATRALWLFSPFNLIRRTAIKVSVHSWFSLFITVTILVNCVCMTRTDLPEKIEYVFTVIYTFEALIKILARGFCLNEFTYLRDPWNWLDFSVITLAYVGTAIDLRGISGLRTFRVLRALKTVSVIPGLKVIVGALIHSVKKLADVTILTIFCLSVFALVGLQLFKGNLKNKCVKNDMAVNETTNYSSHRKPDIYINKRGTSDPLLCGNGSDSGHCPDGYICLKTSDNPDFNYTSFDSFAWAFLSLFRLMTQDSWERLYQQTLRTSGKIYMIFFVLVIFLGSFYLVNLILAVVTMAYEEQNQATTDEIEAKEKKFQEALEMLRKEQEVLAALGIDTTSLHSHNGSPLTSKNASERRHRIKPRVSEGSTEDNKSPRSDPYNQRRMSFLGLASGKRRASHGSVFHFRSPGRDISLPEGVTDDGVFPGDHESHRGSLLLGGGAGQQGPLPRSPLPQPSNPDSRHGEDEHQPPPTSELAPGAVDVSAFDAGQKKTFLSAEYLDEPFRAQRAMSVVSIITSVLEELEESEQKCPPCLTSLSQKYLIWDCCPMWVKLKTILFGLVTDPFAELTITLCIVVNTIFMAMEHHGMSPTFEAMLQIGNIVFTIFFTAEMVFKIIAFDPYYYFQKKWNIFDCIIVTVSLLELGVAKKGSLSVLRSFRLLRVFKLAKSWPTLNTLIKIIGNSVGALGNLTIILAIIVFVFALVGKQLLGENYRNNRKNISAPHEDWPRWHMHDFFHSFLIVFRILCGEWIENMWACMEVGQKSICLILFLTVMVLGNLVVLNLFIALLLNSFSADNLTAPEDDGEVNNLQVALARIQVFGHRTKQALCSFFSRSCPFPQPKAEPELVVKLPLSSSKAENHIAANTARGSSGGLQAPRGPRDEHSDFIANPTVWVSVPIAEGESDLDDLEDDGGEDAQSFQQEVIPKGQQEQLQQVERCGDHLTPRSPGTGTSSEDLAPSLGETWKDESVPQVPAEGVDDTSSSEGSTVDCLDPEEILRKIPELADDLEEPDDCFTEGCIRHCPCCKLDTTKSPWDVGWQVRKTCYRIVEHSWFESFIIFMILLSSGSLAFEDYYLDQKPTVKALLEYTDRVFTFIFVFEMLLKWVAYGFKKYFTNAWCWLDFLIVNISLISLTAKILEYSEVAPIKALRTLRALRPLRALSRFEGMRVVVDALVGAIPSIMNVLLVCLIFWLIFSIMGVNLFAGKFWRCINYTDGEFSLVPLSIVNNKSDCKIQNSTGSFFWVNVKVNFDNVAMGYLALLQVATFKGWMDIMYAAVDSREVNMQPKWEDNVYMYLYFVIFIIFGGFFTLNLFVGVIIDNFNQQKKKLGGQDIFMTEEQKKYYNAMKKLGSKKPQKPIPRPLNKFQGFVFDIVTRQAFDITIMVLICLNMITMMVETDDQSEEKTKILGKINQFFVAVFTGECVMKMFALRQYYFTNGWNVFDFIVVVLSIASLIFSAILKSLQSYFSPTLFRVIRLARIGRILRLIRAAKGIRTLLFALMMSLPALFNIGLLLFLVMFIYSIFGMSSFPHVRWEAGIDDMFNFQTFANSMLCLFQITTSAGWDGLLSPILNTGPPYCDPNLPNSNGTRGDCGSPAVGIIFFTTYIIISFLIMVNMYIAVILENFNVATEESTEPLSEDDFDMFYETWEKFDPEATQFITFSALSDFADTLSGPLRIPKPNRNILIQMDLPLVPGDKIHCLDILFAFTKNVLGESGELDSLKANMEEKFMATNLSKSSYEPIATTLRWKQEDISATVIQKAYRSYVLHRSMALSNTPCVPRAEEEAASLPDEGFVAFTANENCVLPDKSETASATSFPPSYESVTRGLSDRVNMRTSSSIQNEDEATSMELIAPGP

| SMILES | IC50 |
| --- | --- |
| C[C@@H]1C(=O)NCCN1C(=O)NC(c1cc(F)c(F)c(F)c1)[C@H]1CC[C@H](C(F)(F)F)CC1 (single isomer, unassigned) [Example 6B, (R)-2-methyl-3-oxo-N-((S or R)-(trans-4-(trifluoromethyl)cyclo-hexyl)(3,4,5-tri-fluorophenyl)methyl) piperazine-1-carboxamide] | 35.4 nM |
| C[C@@H]1C(=O)NCCN1C(=O)NC(c1ccc(Cl)c(C(F)F)c1)C1CCC(C(F)(F)F)CC1 (single isomer, unassigned) [Example 37D, (2R)-N-((S or R)-(4-chloro-3-(difluoro-methyl)phenyl)(trans-4-(trifluoromethyl)cyclohexyl)methyl)-2-methyl-3-oxopiperazine-1-carboxamide] | 1.99 nM |
| C[C@@H]1C(=O)NCCN1C(=O)NC(c1ccc(F)c(Cl)c1)C1CCN(CC(F)(F)F)CC1 (single isomer, unassigned) [Example 15A] | 28.3 nM |
| C[C@@H]1C(=O)NCCN1C(=O)NC(c1ccc(F)c(Cl)c1F)C1CC(C2CC2)C1 (single isomer, unassigned) [Example 21D, (2R)-N-((S or R)-(3-chloro-2,4-difluoro-phenyl)(cis or trans-3-cyclopropyl-cyclobutyl)-methyl)-2-methyl-3-oxopiperazine-1-carboxamide] | 128 nM |
| C[C@@H]1C(=O)NCCN1C(=O)NC(c1ccc(F)c(Cl)c1F)C1CC(OC(F)F)C1 (single isomer, unassigned) [Example 39C, (2R)-N-((S or R)-(3-chloro-2,4-difluoro-phenyl)(cis-3-(difluoro-methoxy)cyclobutyl)-methyl)-2-methyl-3-oxopiperazine-1-carboxamide] | 48.5 nM |
| C[C@@H]1C(=O)NCCN1C(=O)NC(c1ccc(F)c(Cl)c1)C1CC(OC(F)F)C1 (single isomer, unassigned) [Example 38D, (2R)-N-((S or R)-(3-chloro-4-fluorophenyl)-(trans-3-(difluoro-methoxy)cyclobutyl)-methyl)-2-methyl-3-oxopiperazine-1-carboxamide] | 17.9 nM |
| O=C1CN(C(=O)NC(c2ccc(F)c(Cl)c2)C23CCC(C(F)(F)F)(CC2)CC3)CCN1 (single isomer, unassigned) [Example 12B, N-((S or R)-(3-chloro-4-fluoro-phenyl)(4-(trifluoro-methyl)bicyclo[2.2.2]octan-1-yl)methyl)-3-oxopiperazine-1-carboxamide] | 11.5 nM |
| Cc1cc(C(NC(=O)N2CCNC(=O)[C@H]2C)C2CCC(C(F)(F)F)CC2)ccc1F (single isomer, unassigned) [Example 36A] | 55.7 nM |
| C[C@@H]1C(=O)NCCN1C(=O)NC(C)(c1ccc(F)c(Cl)c1)C1CC(C(F)(F)F)C1 (single isomer, unassigned) [Example 48B, (2R)—N—((R or S)-1-(3-chloro-4-fluorophenyl)-1-(trans-3-(trifluoromethyl)cyclobutyl)ethyl)-2-methyl-3-oxopiperazine-1-carboxamide] | 904 nM |
| C[C@@H]1C(=O)NCCN1C(=O)NC(c1ccc(Cl)c(C(F)(F)F)n1)C1CC(C(F)(F)F)C1 (single isomer, unassigned) [Example 47B, (2R)—N—((R or S)-(5-chloro-6-(trifluoromethyl)pyridin-2-yl)(trans-3-(trifluoromethyl)cyclobutyl)methyl)-2-methyl-3-oxopiperazine-1-carboxamide] | 61.8 nM |
| O=C1CN(C(=O)N[C@H](c2ccc(F)c(Cl)c2)C2CCC(C(F)(F)F)CC2)CCN1 (single isomer, unassigned) [Example 1B] | 183 nM |
| C[C@@H]1C(=O)NCCN1C(=O)NC(c1ccc(OC(F)(F)F)c(F)c1)[C@H]1C[C@H](C(F)(F)F)C1 (single isomer, unassigned) [Example 49A] | 4.46 nM |
| C[C@@H]1C(=O)NCCN1C(=O)NC(c1ccc(F)c(Cl)c1F)C1CC(F)(F)C1 (single isomer, unassigned) [Example 24A, (2R)-N-((R or S)-(3-chloro-2,4-difluoro-phenyl)(3,3-difluoro-cyclobutyl)methyl)-2-methyl-3-oxopiperazine-1-carboxamide] | 2630 nM |
| C[C@@H]1C(=O)NCCN1C(=O)NC(c1csc(C(F)(F)F)n1)[C@H]1CC[C@H](C(F)(F)F)CC1 (single isomer, unassigned) [Example 55B] | 26.3 nM |
| C[C@@H]1C(=O)NCCN1C(=O)N[C@H](c1ccc(F)c(Cl)c1)C1CCC(C(F)(F)F)CC1 (single isomer, unassigned) [Example 5B, (2R)-N-((S or R)-(3-chloro-4-fluoro-phenyl)(trans-4-(tri-fluoromethyl)cyclo-hexyl)methyl)-2-methyl-3-oxo-piperazine-1-carboxamide] | 4.2 nM |
| O=C1NCCN(C(=O)N[C@H](c2ccc(F)c(Cl)c2F)[C@H]2C[C@H](C(F)(F)F)C2)[C@@H]1CO [Example 64, (R)—N—((S)-(3-chloro-2,4-difluorophenyl)((trans)-3-(trifluoromethyl)cyclobutyl)methyl)-2-(hydroxymethyl)-3-oxopiperazine-1-carboxamide] | 3.2 nM |
| C[C@@H]1C(=O)NCCN1C(=O)NC(c1cc(F)c(F)c(F)c1)[C@H]1CC[C@H](C(F)(F)F)CC1 (single isomer, unassigned) [Example 6A, (R)-2-methyl-3-oxo-N-((R or S)-(trans-4-(trifluoromethyl)cyclo-hexyl)(3,4,5-tri-fluorophenyl)methyl) piperazine-1-carboxamide] | 232 nM |
| C[C@@H]1C(=O)NCCN1C(=O)NC(c1ccc(F)c(Cl)c1F)C1CC2(C1)CC2(F)F (single isomer, unassigned) [Example 22B, (2R)-N-((R or S)-(3-chloro-2,4-difluoro-phenyl)(cis or trans-1,1-difluoro-spiro[2,3]-hexan-5-yl)methyl)-2-methyl-3-oxopiperazine-1-carboxamide] | 5.89 nM |
| O=C1CN(C(=O)NC(c2ccc(F)c(Cl)c2)C2CCN(CC(F)(F)F)CC2)CCN1 (single isomer, unassigned) [Example 17A, N-((R or S)-(3-chloro-4-flurophenyl)(1-(2,2,2-trifluoroethyl)piperidin-4-yl)methyl)-3-oxopiperazine-1-carboxamide] | 1630 nM |
| O=C1CN(C(=O)NC(c2ccc(F)c(C(F)(F)F)c2)[C@H]2C[C@H](C(F)(F)F)C2)CCN1 (single isomer, unassigned) [Example 52A, N-((R or S)-(4-fluoro-3-(trifluoromethyl)phenyl) (trans-3-(trifluoro-methyl)cyclobutyl)-methyl)-3-oxo-piperazine-1-carboxamide] | 320 nM |
| C[C@@H]1C(=O)NCCN1C(=O)NC(c1ccc(F)c(Cl)c1F)C1CC12CC2 (single isomer, unassigned) [Example 41D, (2R)-N-((S or R)-(3-chloro-2,4-difluoro-phenyl)((S or R)-spiro[2.2]pentan-1-yl)methyl)-2-methyl-3-oxopiperazine-1-carboxamide] | 1060 nM |
| C[C@@H]1C(=O)NCCN1C(=O)NC(c1ccc(Cl)cc1)C1CCN(CC(F)(F)F)CC1 (single isomer, unassigned) [Example 16A, (2R)-N-((R or S)-(4-chlorophenyl)(1-(2,2,2-trifluoroethyl)piperidin-4-yl)methyl)-2-methyl-3-oxopiperazine-1-carboxamide] | 366 nM |

Reference: patent US20220380338A1, “CYCLOALKYL 3-OXOPIPERAZINE CARBOXAMIDES AND CYCLOHETEROALKYL 3-OXOPIPERAZINE CARBOXAMIDES AS NAV1.8 INHIBITORS” (Merck Sharp & Dohme LLC, priority 2021, published 2022)
